In patent US9499550B2 (BRISTOL-MYERS SQUIBB COMPANY, priority 2012, dated 2016):
pEC50: −log10 of the molar value. Read-outs that look alike come from different tables or passages of the source.

What was measured:
[1] = system: HCV genotype 1a (H77 strain) replicon in HUH-7 cells; experiment: HCV replicon luciferase reporter assay, genotype 1a; format: cell-based; settings: Hepatitis C virus, Huh-7, 72 h, HCV genotype 1a replicon luciferase, 3 days incubation
Summary of the method: (§1)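 Replicon inhibition for both genotypes was measured as Renilla luciferase signal (EnduRen, 7.5 μM final, 2 h) after 3-day, 37° C exposure of replicon-bearing HUH-7 cells in 4% FCS DMEM, 0.5% DMSO. The 1b construct carries S1179I; the 1a H77 construct carries P1496L and S2204I. Twenty-point, 3-fold dilutions were fitted four-parametrically for EC50, and CC50 was taken from multiplexed Cell Titer-Blue.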

[2] = system: HCV genotype 1b (Con1) replicon in HUH-7 cells; experiment: HCV replicon luciferase reporter assay, genotype 1b; format: cell-based; settings: Hepatitis C virus, Huh-7, 72 h, HCV genotype 1b replicon luciferase, 3 days incubation
Summary of the method: as §1

Row | SMILES | pEC50 ([1]; read-out: LE_1a (EC50, range)) | pEC50 ([2]; read-out: LE_1b (EC50, range)) | pEC50 ([1]; read-out: LE_1a (EC50)) | pEC50 ([2]; read-out: LE_1b (EC50))
1 | CCOc1ccc2c(O[C@@H]3C[C@H]4C(=O)N[C@]5(C(=O)NS(=O)(=O)C6CC6)C[C@H]5/C=C\CC[C@H](C)C[C@@H](C)[C@H](NC(=O)OC(C)(C)C)C(=O)N4C3)nccc2c1 [Compound 5127, tert-butyl ((2R,6S,7R,9S,13aS,14aR,16aS,Z)-14a-((cyclopropylsulfonyl)carbamoyl)-2-((6-ethoxyisoquinoline-1-yl)oxy)-7,9-dimethyl-5,16-dioxo-1,2,3,5,6,7,8,9,10,11,13a,14,14a,15,16,16a-hexadecahydrocyclopropa[e]pyrrolo[1,2-a][1,4]diazacyclopentadecin-6-yl)carbamate] | > 8.26 | > 8.26 |  | 
2 | COc1cc2ccnc(O[C@@H]3C[C@H]4C(=O)N[C@]5(C(=O)NS(=O)(=O)C6(F)CC6)C[C@H]5/C=C\CC[C@@H](C)C[C@@H](C)[C@H](NC(=O)OCC5(C)CC5)C(=O)N4C3)c2cc1F [Compound 4050, (1-methylcyclopropyl)methyl (2R,6S,7R,9R,13aS,14aR,16aS,Z)-2-(7-fluoro-6-methoxyisoquinolin-1-yloxy)-14a-(1-fluorocyclopropylsulfonylcarbamoyl)-7,9-dimethyl-5,16-dioxo-1,2,3,5,6,7,8,9,10,11,13a,14,14a,15,16,16a-hexadecahydrocyclopropa[e]pyrrolo[1,2-a][1,4]diazacyclopentadecin-6-ylcarbamate] | > 8.26 | > 8.26 |  | 
3 | COc1ccc2c(O[C@@H]3C[C@H]4C(=O)N[C@]5(C(=O)NS(=O)(=O)C6CC6)C[C@H]5/C=C\CC[C@@H](C)C[C@@H](C)[C@H](NC(=O)OC(C)(C)C(C)(F)F)C(=O)N4C3)nc(-c3ccc4c(c3)OCCO4)cc2c1 [Compound 5241, 3,3-difluoro-2-methylbutan-2-yl((2R,6S,7R,9R,13aS,14aR,16aS,Z)-14a-((cyclopropylsulfonyl)carbamoyl)-2-((3-(2,3-dihydrobenzo[b][1,4]dioxin-6-yl)-6-methoxyisoquinolin-1-yl)oxy)-7,9-dimethyl-5,16-dioxo-1,2,3,5,6,7,8,9,10,11,13a,14,14a,15,16,16a-hexadecahydrocyclopropa[e]pyrrolo[1,2-a][1,4]diazacyclopentadecin-6-yl)carbamate] | > 8.26 | > 8.26 |  | 
4 | C[C@H]1CC/C=C\[C@@H]2C[C@@]2(C(=O)NS(=O)(=O)C2(C)CC2)NC(=O)[C@@H]2C[C@@H](Oc3nc4c(c5ccccc35)OCCC4)CN2C(=O)[C@@H](NC(=O)OC(C)(C)C(C)(F)F)[C@H](C)C1 [Compound 6033, 3,3-difluoro-2-methylbutan-2-yl((2R,6S,7R,9S,13aS,14aR,16aS,Z)-2-((3,4-dihydro-2H-pyrano[3,2-c]isoquinolin-6-yl)oxy)-7,9-dimethyl-14a-(((1-methylcyclopropyl)sulfonyl)carbamoyl)-5,16-dioxo-1,2,3,5,6,7,8,9,10,11,13a,14,14a,15,16,16a-hexadecahydrocyclopropa[e]pyrrolo[1,2-a][1,4]diazacyclopentadecin-6-yl)carbamate] | 6.99 to 8.32 | > 8.26 | 7.97 | 8.36
5 | C[C@H]1CC/C=C\[C@@H]2C[C@@]2(C(=O)NS(=O)(=O)C2CC2)NC(=O)[C@@H]2C[C@@H](Oc3nccc4c5c(ccc34)N(C)CCO5)CN2C(=O)[C@@H](NC(=O)NC(C)(C)C)[C@H](C)C1 [Compound 5283, (2R,6S,7R,9S,13aS,14aR,16aS,Z)-6-(3-(tert-butyl)ureido)-N-(cyclopropylsulfonyl)-7,9-dimethyl-2-((4-methyl-3,4-dihydro-2H-[1,4]oxazino[2,3-f]isoquinolin-7-yl)oxy)-5,16-dioxo-1,2,3,5,6,7,8,9,10,11,13a,14,14a,15,16,16a-hexadecahydrocyclopropa[e]pyrrolo[1,2-a][1,4]diazacyclopentadecine-14a-carboxamide] | > 8.26 | > 8.26 | 8.32 | 8.51
